Test system: M. tuberculosis H37Rv growth inhibition
Test: M. tuberculosis H37Rv growth inhibitors, H37Rv strain (AID 1626)
Conditions: for IC90: measured here: IC90 against H37Rv; for CC50: measured here: Vero cell cytotoxicity

Clc1ccc(COC(Cn2ccnc2)c2ccc(Cl)cc2Cl)cc1 (stereo not drawn)
IC50: 3.74 µM | IC90: 5.68 µM | CC50: 33.1 µM

CCCc1cc(NCCCn2ccnc2)n2nc(C)c(-c3ccccc3)c2n1
IC50: 6.28 µM | IC90: 9.38 µM | CC50: > 40 µM

Cc1ccc(C2CC(C(F)(F)F)n3ncc(C(=O)NCc4ccco4)c3N2)cc1 (stereo not drawn)
IC50: < 0.195 µM | IC90: 3.64 µM

CCC1CCCCN1C(=O)COC(=O)c1cc(Br)ccc1Cl (stereo not drawn)
IC50: 15.2 µM | IC90: > 100 µM

Cc1ccc(-n2c(-c3ccc(Br)cc3)c[n+]3c2CCc2ccc4cccnc4c2-3)cc1
IC50: 0.76 µM | IC90: 1.07 µM | CC50: 5.51 µM

CCCCOC(=O)c1ccc(NC(=O)C(=O)NCCN(CC)CC)cc1
IC50: 35.7 µM | IC90: > 100 µM

CCOc1ccc(NC(=O)N(C2CCCCC2)C2CCN(C(C)=O)CC2)cc1
IC90: > 100 µM

CCCc1cc(C(=O)Nc2nccs2)cs1
IC50: 17.7 µM | IC90: > 100 µM

CN=C(Nc1cc(Cl)ccc1Cl)SC1CC(=O)N(c2ccc(C(=O)OC)cc2)C1=O (stereo not drawn)
IC50: 24.9 µM | IC90: > 100 µM | CC50: > 40 µM

Cn1c(O)c(C(=Nc2ccccc2)SCc2ccccc2Cl)c(=O)n(C)c1=O
IC50: 2.23 µM | IC90: 2.76 µM | CC50: 22.7 µM

CCN(CC)CCC(c1ccc2c(c1)OCO2)c1c(OC)cc(OC)c2c(-c3ccccc3)cc(=O)oc12 (stereo not drawn)
IC50: 13.4 µM | IC90: 21.3 µM | CC50: 16.5 µM

O=C1CC(=C(c2ccccc2)c2ccccc2)C(=O)N1CCCCN1CCN(c2cccc(Cl)c2)CC1
IC50: 4.47 µM | IC90: 6.35 µM | CC50: > 40 µM

Nc1nc(COc2ccc(Cl)cc2)cs1
IC90: > 100 µM

CCCOC(=O)c1ccc(NC(=O)C(=O)NCC2CCCO2)cc1 (stereo not drawn)
IC50: 38.7 µM | IC90: > 100 µM

CC1C(c2ccccc2)N(C)C(c2ccccc2)CC1(O)c1ccccc1 (stereo not drawn)
IC50: 5.85 µM | IC90: 6.61 µM | CC50: > 40 µM

O=C(CCl)Nc1cn(-c2ccccc2)nc1-c1ccccc1
IC50: 9.87 µM | IC90: 38.6 µM | CC50: 9.49 µM

Cc1ccc(C(=O)/C=C/C(=O)c2ccc(C)cc2)cc1
IC50: 5.49 µM | IC90: 9.24 µM | CC50: > 40 µM

CC(C)c1ccc2nc(N)sc2c1
IC50: 43.3 µM | IC90: > 100 µM | CC50: > 40 µM

Cc1cc(OCc2nnc(SCC(=O)OC3CCCCC3)o2)ccc1Cl
IC50: 0.372 µM | IC90: 2.57 µM

O=c1c([N+](=O)[O-])cc(C(F)(F)F)cn1Cc1cccc(Cl)c1
IC50: 8.56 µM | IC90: 22.2 µM

CNc1nc(-c2ccccn2)nnc1-c1ccccc1
IC50: 8.5 µM | IC90: 11.1 µM | CC50: 11.3 µM

Cc1ccc(C(=O)N2CCN(c3ccc(NC(=O)COc4ccccc4C)cc3)CC2)cc1
IC50: 9.58 µM | IC90: > 100 µM | CC50: > 40 µM

Cc1cccc(NC(=O)/C=C/c2ccc([N+](=O)[O-])s2)c1
IC50: < 0.391 µM | IC90: < 0.391 µM | CC50: 6.99 µM

CCOc1ccc(CN2CCN(CC(O)Cn3c4ccccc4c4ccccc43)CC2)cc1 (stereo not drawn)
IC50: 4.35 µM | IC90: 6.2 µM | CC50: 13.6 µM

Cc1ccc(NC(NC(=O)c2cccs2)C(Cl)(Cl)Cl)cc1C (stereo not drawn)
IC50: 24.3 µM | IC90: > 100 µM | CC50: > 40 µM

COc1cc(/C=C(/C#N)C(=O)Nc2ccc(C)cc2)ccc1Oc1nc(Cl)ncc1F
CC50: > 40 µM

COc1ccc(/C=C/C(=O)Oc2ccc(C)c(C)c2)cc1OC
IC50: 9.43 µM | IC90: > 100 µM

COC(=O)c1c(C)oc2ccc(OC(=O)c3cccs3)cc12
IC50: 1.1 µM | IC90: 17.8 µM

Cc1cc(C(=O)Cn2cncn2)c(C)n1CCc1ccc(F)cc1
IC90: > 100 µM

CC1CC(C)CN(C(=O)/C=C/c2ccc([N+](=O)[O-])s2)C1 (stereo not drawn)
IC50: 10.2 µM | IC90: 13.3 µM | CC50: 37.4 µM

CC(C)(C)C(=O)/C=c1\s/c(=C\c2ccc(-c3ccc([N+](=O)[O-])cc3)o2)c(=O)n1CC(=O)NC(N)=O
IC90: > 100 µM | CC50: > 40 µM

Cc1cc(NC(=O)c2cc(-c3ccncc3)nc3c(C)cccc23)no1
IC50: 48.1 µM | IC90: 74.3 µM | CC50: 12.9 µM

CCCn1c(=N)c(C(=O)NCc2ccc3c(c2)OCO3)cc2c(=O)n3cccc(C)c3nc21
IC50: 19.6 µM | IC90: 31.7 µM | CC50: > 40 µM

Cc1ccc(Nc2cc(C)nn2-c2nc(C)cc(=O)[nH]2)cc1
IC50: < 0.391 µM | IC90: 5.56 µM | CC50: 1.95 µM

Cc1cccc(C=Nc2ccc3c(c2)oc2ccccc23)c1O
IC50: 1.11 µM | IC90: > 100 µM

CCOc1ccc(-c2nnc(N)o2)cc1
IC50: 57.8 µM | IC90: > 100 µM

Cc1cccc(-n2cc(CN(C)Cc3nccn3C)c(-c3cccc(F)c3)n2)c1
IC50: 7.43 µM | IC90: 12.1 µM | CC50: > 40 µM

Cc1ccc(-c2nnc3sc(C4COc5ccccc5O4)nn23)cc1 (stereo not drawn)
IC50: 4.77 µM | IC90: > 100 µM

Nc1nc(-c2ccccn2)nc(N)c1Cc1c(F)cccc1Cl
IC50: < 0.391 µM | IC90: 0.451 µM | CC50: 4.76 µM

CCN1CCN(Cc2ccc(NC(=O)c3ccc(C)c(NC(=O)c4cc(-c5ccc(Br)cc5)n[nH]4)c3)cc2C(F)(F)F)CC1
IC50: 2.16 µM | IC90: 2.85 µM | CC50: 13 µM

O=C(Nc1ccccc1OC(=O)c1ccc(Cl)cc1)c1ccc(Cl)cc1
IC50: 12 µM | IC90: 18.6 µM

Cc1c(C(=O)Oc2cccc3cccnc23)cccc1[N+](=O)[O-]
IC50: 6.52 µM | IC90: 7.5 µM | CC50: > 40 µM

CN(C)c1ccc(C(=O)Nc2nnc(C3=COCCO3)o2)cc1
IC50: 23.5 µM | IC90: 26.7 µM | CC50: > 40 µM

Cc1ccc(OC(=O)c2sc3ncn(C)c(=O)c3c2C)cc1
IC50: 1.49 µM | IC90: 1.7 µM

CC(C)(c1ccccc1)c1ccc(OCC(O)CNC2CCN(Cc3ccccc3)CC2)cc1 (stereo not drawn)
IC50: 4.53 µM | IC90: 6.06 µM | CC50: 6.22 µM

CCOC(=O)CSc1nnc(-c2cccc(Br)c2)o1
IC50: 0.486 µM | IC90: 15.2 µM

Nc1nc(Nc2cccc(Cl)c2)nc(NCc2ccco2)c1[N+](=O)[O-]
IC50: 29.9 µM | IC90: > 100 µM | CC50: > 40 µM

CCOC(=O)c1cnc(-n2nc(C)cc2C)nc1N(CC)CC
IC50: 3.78 µM | IC90: 6.53 µM | CC50: > 40 µM

N#Cc1cnc2c(-c3ccccc3)c(-c3ccccc3)nn2c1N
IC50: 28.1 µM | IC90: > 100 µM | CC50: > 40 µM

Cc1nc2ccc(N)cc2s1
IC50: 0.6 µM | IC90: > 100 µM

CC1CCCN(C(=O)C2CCC(CNc3c(N4CCCCC4)c(=O)c3=O)CC2)C1 (stereo not drawn)
IC50: 11.7 µM | IC90: > 100 µM

CC(C)(C)C(=O)/C(=C/c1ccncc1)n1cncn1
IC50: 8.39 µM | IC90: 11.7 µM | CC50: 5.11 µM

c1ccc(CCCN2CCN(CCOC(c3ccccc3)c3ccccc3)CC2)cc1
IC50: 5.22 µM | IC90: 5.82 µM | CC50: > 40 µM

O=C(COC(=O)/C=C/c1cccs1)Nc1ccc2ccccc2c1
IC50: 90.8 µM | IC90: > 100 µM

O=C(Oc1ccc(/C=N/O)cc1)c1ccccc1Cl
IC50: 28.5 µM | IC90: > 100 µM

Cc1ccc(NC2=CC(=O)C(=O)c3ccccc32)cc1
IC50: 1.49 µM | IC90: 1.94 µM | CC50: 6.94 µM

O=C(Nc1nnc(C2=COCCO2)o1)c1ccc(Cl)cc1
IC50: 2.71 µM | IC90: 4.41 µM | CC50: > 40 µM

COc1ccc(-c2csc(NC(C)c3nc4cc(Cl)c(N5CCCCC5)cc4n3CCCO)n2)cc1 (stereo not drawn)
IC50: 12.7 µM | IC90: > 100 µM | CC50: > 40 µM

COc1ccc(NC(=O)c2nc[nH]c2C(=O)N[C@@H](C)c2ccccc2)cc1
IC50: 5.7 µM | IC90: 22.4 µM | CC50: > 40 µM

COc1cc(OC)c(-c2nn3c(C4CCCCC4)nnc3s2)cc1OC
IC50: 2.2 µM | IC90: 6.47 µM

Cc1nc2ccc(NC(=O)c3ccc(Br)o3)cc2s1
IC50: 64.2 µM | IC90: > 100 µM

CC(C)(C)c1ccc(OCCCC(=O)NC2=NCCS2)cc1
IC50: 11.8 µM | IC90: > 100 µM | CC50: > 40 µM

O=C(Nc1nnc(-c2ccc(Cl)cc2)o1)C1CCCCC1
IC50: 3.32 µM | IC90: > 100 µM | CC50: > 40 µM

CN1CCN(c2oc(COc3ccc(-c4ccccc4)cc3)nc2C#N)CC1
IC50: 15.4 µM | IC90: 28.7 µM | CC50: > 40 µM

O=C(/C=C/c1cccc2ccccc12)c1ccncc1
IC50: 8.2 µM | IC90: 12.7 µM | CC50: > 40 µM

O=C(NCc1nnc2c3ccccc3c(-c3ccccc3)nn12)c1ccc(Cl)cc1
IC50: 3.04 µM | IC90: 3.32 µM | CC50: > 40 µM

O=C(Nc1ccc(OC(F)(F)F)cc1)N1CCN(c2ccnc3cc(Cl)ccc23)CC1
IC50: 3.08 µM | IC90: 3.51 µM | CC50: 8.59 µM

CNc1nc(SC)nc2ccsc12
IC50: 5.66 µM | IC90: 15.2 µM

O=C(OCC#CCSc1nnc(-c2ccccc2)o1)c1ccco1
IC50: 1.16 µM | IC90: 3.94 µM

CCC(/C=C1\Sc2ccc(OC)cc2N1CCO)=C\c1sc2ccc(OC)cc2[n+]1CCO
IC50: 7.29 µM | IC90: 10.2 µM

O=C(/C=C/c1ccco1)Nc1nc(-c2ccccn2)cs1
IC50: 0.446 µM | IC90: 3.54 µM | CC50: > 40 µM

CCCCc1c(C)c(C#N)c2nc3ccccc3n2c1Cl
IC50: 10.1 µM | IC90: > 100 µM | CC50: 5.35 µM

CN(C(=O)c1ccco1)c1nc2c(s1)CCCC2
CC50: > 40 µM

CCC(CO)[n+]1c(C)cc(/C=C2\Sc3ccccc3N2Cc2ccccc2)cc1C (stereo not drawn)
IC50: 1.3 µM | IC90: 1.95 µM | CC50: 23.2 µM

C=C(C)C1Cc2c(C)nn(-c3nc(C)cc(C)n3)c2C1 (stereo not drawn)
IC50: 10.1 µM | IC90: > 100 µM | CC50: > 40 µM

Cc1[nH]n(-c2ccc(Cl)cc2)c(=O)c1N=Nc1cccnc1
IC50: 3.39 µM | IC90: > 100 µM | CC50: 36.1 µM

O=C(Nc1nnc(-c2ccccc2)o1)c1ccc(Cl)cc1
IC50: < 0.195 µM | IC90: 95.1 µM | CC50: 34.3 µM

CCCCCc1cc(=O)oc2c(C(CCN3CCCC(C)C3)c3ccc(N(C)C)cc3)c(OC)cc(OC)c12 (stereo not drawn)
IC50: 5.6 µM | IC90: 6.31 µM | CC50: 16.5 µM

N=C1SC(c2ccccc2)C(=O)N1c1ncc(Cc2ccccc2Cl)s1 (stereo not drawn)
IC50: 71 µM | IC90: > 100 µM | CC50: 29.5 µM

CCOC(=O)c1c(NC(=O)COc2ccccc2)sc2c1CC(C)(C)NC2(C)C
IC50: 20.1 µM | IC90: 26.8 µM | CC50: > 40 µM

Cc1ccc2c(Cl)cc(Cl)c(OCC(=O)NC(C)(C)C)c2n1
IC50: 11.6 µM | IC90: > 100 µM | CC50: > 40 µM

Reference: PubChem BioAssay AID1626 (SRMLSC, 2009)
